Test results: PubChem BioAssay AID1552 (Sanford-Burnham Center for Chemical Genomics, 2009)
Activity calls are given as the source filed them. The rule behind the calls is not given here. Residues, ends and D or L forms follow the SMILES beside them.

Each molecule was assayed against Ubiquitin-conjugating enzyme E2 N (Homo sapiens) (UniProt P61088) (assay: UBE2N binders by NMR, biophysical, purified protein (AID 1552)). Settings: NMR binding to purified UBE2N.
Chain of Ubiquitin-conjugating enzyme E2 N (Homo sapiens) (P61088 whole entry, looked up): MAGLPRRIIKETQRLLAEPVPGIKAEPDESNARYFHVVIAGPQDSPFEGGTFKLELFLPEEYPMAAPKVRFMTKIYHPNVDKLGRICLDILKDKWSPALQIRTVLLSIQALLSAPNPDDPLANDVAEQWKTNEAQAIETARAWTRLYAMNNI

| Compound | Kd |
| --- | --- |
| Cc1cc(S(=O)(=O)N2CCOCC2)ccc1F | > 4 mM (inactive) |
| OCc1ccc2nonc2c1 | > 4 mM (inactive) |
| COC(=O)C1CSCC1=O (stereo not drawn) | > 4 mM (inactive) |
| O=S1(=O)CCC(NC(=S)N2CCCCC2)C1 (stereo not drawn) | > 4 mM (inactive) |
| S=c1[nH]ncn1-c1ccccc1 | > 4 mM (inactive) |
| O=C(CCc1ccc(O)cc1)c1c(O)cc(O)cc1O | > 4 mM (inactive) |
| CC(=O)Nc1ccc(C(=O)N2CCOCC2)cc1Cl | > 4 mM (inactive) |
| CNC(=O)C1CC(=O)N(c2ccc(O)cc2)C1 (stereo not drawn) | > 4 mM (inactive) |
| O=C(O)Cn1c(=O)sc2ccccc21 | > 4 mM (inactive) |
| NS(=O)(=O)c1ccc(N=Cc2cccs2)cc1 | > 4 mM (inactive) |
| Cc1ccc(-c2nn(C)c(=O)c3ccccc23)cc1CO | > 4 mM (inactive) |
| CN(C)/C=N/S(=O)(=O)c1ccccc1 | > 4 mM (inactive) |
| O=C(Nn1cnnc1)c1cccc(C(F)(F)F)c1 | > 4 mM (inactive) |
| CN(C(N)=O)C1(C)CCS(=O)(=O)C1 (stereo not drawn) | > 4 mM (inactive) |
| Cc1ccc2[nH]c3nc(=S)[nH]nc3c2c1 | > 4 mM (inactive) |
| CC1=NN(c2ccc(C)cc2)C(=O)C1 | > 4 mM (inactive) |
| Cc1sc2nc(C)n(NC(N)=O)c(=O)c2c1C | > 4 mM (inactive) |
| O=C1NC(=Nc2ccccc2)S/C1=C/c1cccnc1 | > 4 mM (inactive) |
| O=C1C[C@@H](c2ccccc2)Oc2cc(O)cc(O)c21 | > 4 mM (inactive) |
| O=C(c1ccc(Cl)c(F)c1F)N1CCCC1 | > 4 mM (inactive) |

| Compound | Kd |
| --- | --- |
| Nc1cccc2nonc12 | > 4 mM (inactive) |
| CC(=O)N[C@@H](CC(=O)O)C(=O)N[C@@H](CCC(=O)O)C(=O)O (Ac-Asp-Glu-OH) | > 4 mM (inactive) |
| COc1ccc(C2CC(=O)NN2)cc1OC1CCCC1 (stereo not drawn) | > 4 mM (inactive) |
| O=C(CS(=O)(=O)c1ccccc1)N1CCCCCC1 | > 4 mM (inactive) |
| CCOC(=O)c1c(C)cc(O)c(C)c1O | > 4 mM (inactive) |
| Clc1ccc(SCCn2cncn2)cc1 | > 4 mM (inactive) |
| O=c1cc(CO)oc(CN2CCCCC2)c1O | > 4 mM (inactive) |
| COC(=O)[C@H]1[C@H]2C[C@H]3c4[nH]c5ccccc5c4CCN3C[C@H]2CC[C@@H]1O | > 4 mM (inactive) |
| O=C(O)c1ccccc1C(=O)Nc1ccccc1 | > 4 mM (inactive) |
| Cc1cc(NC(=O)c2c(F)c(F)c(F)c(F)c2F)no1 | > 4 mM (inactive) |
| Cn1ccnc1SCc1cc(=O)[nH]c2ccccc12 | > 4 mM (inactive) |
| NC(=O)Cn1nc(-c2ccco2)ccc1=O | > 4 mM (inactive) |
| COc1ccc2c(c1)CCCN2C(N)=O | > 4 mM (inactive) |
| NC(=O)COc1cccc2cccnc12 | > 4 mM (inactive) |
| C=C1C2CC[C@@]3(C)[C@H](c4ccoc4)OC(=O)C[C@]13O[C@H]1CC(=O)C(C)(C)[C@H](C(O)C(=O)OC)[C@@]21C (stereo partly drawn) | > 4 mM (inactive) |
| CSc1nc2nc(C)cc(=O)n2[nH]1 | > 4 mM (inactive) |
| C(=Nn1cnnc1)c1ccccc1 | > 4 mM (inactive) |
| CSc1nc(O)cc(=O)[nH]1 | > 4 mM (inactive) |
| Nc1nc2ncc(CNc3ccc(C(=O)N[C@@H](CCC(=O)O)C(=O)O)cc3)nc2c(=O)[nH]1 | > 4 mM (inactive) |
| O=C(O)c1c[nH]c2ccccc12 | > 4 mM (inactive) |

| Compound | Kd |
| --- | --- |
| Cn1c(=O)c2c(ncn2CCN)n(C)c1=O | > 4 mM (inactive) |
| CNC(=O)N1CCN(C(=O)NC)CC1 | > 4 mM (inactive) |
| COc1cc([C@@H]2c3cc4c(cc3C(OC3O[C@@H]5COC(C)O[C@H]5[C@H](O)[C@H]3O)C3COC(=O)[C@@H]32)OCO4)cc(OC)c1O (stereo partly drawn) | > 4 mM (inactive) |
| NC(=O)c1ccsc1NC(=O)c1ccco1 | > 4 mM (inactive) |
| Cc1ccc2[nH]cc(CCN)c2c1 | > 4 mM (inactive) |
| NC(=O)CCn1c(=O)oc2ccccc21 | > 4 mM (inactive) |
| CC(=O)Nc1ccc(N2C(=O)C=CC2=O)cc1C | > 4 mM (inactive) |
| Cc1ccc(/C=C2/NC(=S)NC2=O)s1 | > 4 mM (inactive) |
| O=C(O)CCC1=C2c3ccccc3CCN2C(=O)CC1 | > 4 mM (inactive) |
| O=C(Nc1cccc2ncccc12)c1cccnc1 | > 4 mM (inactive) |
| Nc1ccn(C2O[C@H](CO)[C@@H](O)[C@H]2O)c(=O)n1 (stereo partly drawn) | > 4 mM (inactive) |
| O=C(Nc1ccccc1)Nc1ccccc1 | > 4 mM (inactive) |
| COC(=O)C1=C(C)N(Cc2ccco2)C(=O)C1 | > 4 mM (inactive) |
| CCOC(=O)Nc1ccc2c(C)cc(=O)oc2c1 | > 4 mM (inactive) |
| Cc1ccc(C(=O)N2CCOCC2)cc1Cl | > 4 mM (inactive) |
| NCCCCN | > 4 mM (inactive) |
| O=C1CC(NCc2ccco2)C(=O)NN1 (stereo not drawn) | > 4 mM (inactive) |
| NC(=O)Cn1nnc(-c2ccc(C(F)(F)F)cc2)n1 | > 4 mM (inactive) |
